# Assay results published in US12441768B2, “Compositions and methods for treating endometriosis” (EndoMet Biosciences, Inc., priority 2018, dated 2025).
# Where a SMILES comes first, the peptide text is derived from it.
# Assays:
# [1] = target: Wnt-responsive promoter (TCF/LEF); assay: Wnt-dependent luciferase reporter assay; type: cell-based, murine
# How it was run: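 EC50 (uM) derived from inhibition of luminescence in Wnt3a-stimulated murine 3T3 cells expressing luciferase under a TCF/LEF promoter, with peptides added across a concentration range and vehicle as control.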
# [2] = % Viability non-Wnt responsive cells
# β-catenin = target: T1, β-catenin (Homo sapiens, UniProt P35222); assay: KD50 measurement using competitive fluorescence polarization (FP) with labelled TCF4; type: binding; settings: fluorescence polarization, β-catenin; for Kd: read-out: β-Cat FP KD
# T1 sequence (P35222 1-781): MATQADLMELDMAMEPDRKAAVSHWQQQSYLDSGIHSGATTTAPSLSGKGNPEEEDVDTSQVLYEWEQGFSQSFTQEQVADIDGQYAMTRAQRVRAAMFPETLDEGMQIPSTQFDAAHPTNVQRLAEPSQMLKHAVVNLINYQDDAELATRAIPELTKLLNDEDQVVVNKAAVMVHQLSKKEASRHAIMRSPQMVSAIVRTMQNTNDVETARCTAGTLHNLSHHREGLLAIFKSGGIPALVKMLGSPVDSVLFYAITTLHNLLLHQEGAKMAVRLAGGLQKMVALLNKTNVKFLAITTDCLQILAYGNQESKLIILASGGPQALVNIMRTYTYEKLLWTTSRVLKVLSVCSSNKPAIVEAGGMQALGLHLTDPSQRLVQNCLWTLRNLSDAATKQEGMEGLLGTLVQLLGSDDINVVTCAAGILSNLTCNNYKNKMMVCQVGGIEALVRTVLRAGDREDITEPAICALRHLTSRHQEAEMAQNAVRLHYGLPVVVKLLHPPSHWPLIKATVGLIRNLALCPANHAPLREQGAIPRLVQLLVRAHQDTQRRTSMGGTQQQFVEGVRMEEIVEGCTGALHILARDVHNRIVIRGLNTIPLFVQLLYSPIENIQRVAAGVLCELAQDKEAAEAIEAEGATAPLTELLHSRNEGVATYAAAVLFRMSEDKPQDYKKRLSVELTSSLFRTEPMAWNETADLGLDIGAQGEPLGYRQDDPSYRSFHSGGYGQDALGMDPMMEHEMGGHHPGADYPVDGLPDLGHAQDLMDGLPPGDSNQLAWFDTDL
# How it was run: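 5 nM labelled TCF4 was combined with 100 nM β-catenin at room temperature, then inhibitor was titrated in serial dilutions from 10 nM to 30 uM. Polarization was read at excitation 470 nm, emission 520 nm; displacement lowers the signal. Three independent experiments.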
compound,measurement,setting,value
CC[C@H](C)[C@H](NC(=O)[C@H](CC(C)C)NC(=O)[C@H](Cc1ccccc1)NC(=O)[C@H](Cc1c[nH]c2ccccc12)NC(=O)[C@@H](N)CCSC)C(=O)N[C@@H](CCC(N)=O)C(=O)N[C@@H](Cc1ccccc1)C(=O)N[C@@H](Cc1c[nH]c2ccccc12)C(=O)NCC(=O)O [compound 143] (H-MWFLIQFWG-OH),EC50,[1],7.5 to 15 µM
same,viability,[2],104%
same,Kd,β-catenin,> 30 µM
CC[C@H](C)[C@H](NC(=O)[C@H](CC(C)C)NC(=O)[C@H](Cc1ccccc1)NC(=O)[C@H](Cc1c[nH]c2ccccc12)NC(=O)[C@@H](N)CCSC)C(=O)N[C@@H](CO)C(=O)N[C@@H](Cc1ccccc1)C(=O)N[C@@H](Cc1c[nH]c2ccccc12)C(=O)N[C@@H](C)C(=O)O [compound 162] (H-MWFLISFWA-OH),EC50,[1],7.5 to 15 µM
same,viability,[2],104%
same,Kd,β-catenin,> 30 µM
CC[C@H](C)[C@H](NC(=O)[C@H](CC(C)C)NC(=O)[C@H](Cc1ccccc1)NC(=O)[C@@H](N)Cc1c[nH]c2ccccc12)C(=O)N[C@@H](CO)C(=O)N[C@@H](CO)C(=O)N[C@@H](Cc1c[nH]c2ccccc12)C(=O)O [compound 97] (H-WFLISSW-OH),EC50,[1],22.5 to 30 µM
same,viability,[2],102%
same,β-Cat FP Hill slope,β-catenin,2.45
same,Kd,β-catenin,1 to 10 µM
"CC[C@H](C)[C@@H]1NC(=O)[C@H](CC(C)C)NC(=O)[C@H](Cc2ccccc2)NC(=O)[C@H](Cc2c[nH]c3ccccc23)NC(=O)[C@@H](N)CCCCNC(=O)C[C@@H](C(=O)O)NC(=O)[C@H](Cc2c[nH]c3ccccc23)NC(=O)[C@H](C)NC(=O)[C@H](CO)NC1=O [compound 202] (HELM PEPTIDE1{K.W.F.L.I.S.A.W.D}$PEPTIDE1,PEPTIDE1,1:R3-9:R3$$$V2.0)",EC50,[1],22.5 to 30 µM
same,viability,[2],92.1%
same,Kd,β-catenin,> 30 µM
CSCC[C@H](NC(=O)[C@H](CCCNC(=N)N)NC(=O)[C@H](CO)NC(=O)[C@@H](N)CCSC)C(=O)N[C@@H](Cc1c[nH]c2ccccc12)C(=O)N[C@@H](Cc1ccccc1)C(=O)N[C@@H](CC(C)C)C(=O)N[C@@H](Cc1ccccc1)C(=O)N[C@@H](CO)C(=O)N[C@@H](Cc1ccccc1)C(=O)N[C@@H](Cc1c[nH]c2ccccc12)C(=O)NCC(=O)O [compound 63] (H-MSRMWFLFSFWG-OH),EC50,[1],< 7.5 µM
same,viability,[2],97.9%
same,Kd,β-catenin,> 30 µM
CC[C@H](C)[C@H](NC(=O)[C@H](CC(C)C)NC(=O)[C@H](Cc1ccccc1)NC(=O)[C@H](Cc1c[nH]c2ccccc12)NC(=O)[C@H](CCSC)NC(=O)[C@H](CCCNC(=N)N)NC(=O)[C@H](CO)NC(=O)[C@@H](N)CCCCN)C(=O)N[C@@H](CO)C(=O)N[C@@H](Cc1ccccc1)C(=O)N[C@@H](Cc1c[nH]c2ccccc12)C(N)=O [compound 83] (H-KSRMWFLISFW-NH2),EC50,[1],> 30 µM
same,viability,[2],90.9%
same,Kd,β-catenin,> 30 µM
CC[C@H](C)[C@H](NC(=O)[C@H](CC(C)C)NC(=O)[C@H](Cc1ccccc1)NC(=O)[C@H](C)N(C)C(=O)[C@H](CCSC)NC(=O)[C@H](CCCNC(=N)N)NC(=O)[C@H](CO)NC(=O)[C@@H](N)CCSC)C(=O)N[C@@H](CO)C(=O)N[C@@H](Cc1ccccc1)C(=O)N[C@@H](Cc1c[nH]c2ccccc12)C(=O)NCC(=O)O [compound 50] (HELM PEPTIDE1{M.S.R.M.[meA].F.L.I.S.F.W.G}$$$$V2.0),EC50,[1],> 30 µM
same,viability,[2],96.7%
same,β-Cat FP Hill slope,β-catenin,0.76
same,Kd,β-catenin,1 to 10 µM
CC[C@H](C)[C@H](NC(=O)[C@H](CC(C)C)NC(=O)[C@H](Cc1ccccc1)NC(=O)[C@H](Cc1c[nH]c2ccccc12)NC(=O)[C@@H](N)CCSC)C(=O)N[C@@H](Cc1c[nH]cn1)C(=O)N[C@@H](Cc1ccccc1)C(=O)N[C@@H](Cc1c[nH]c2ccccc12)C(=O)NCC(=O)O [compound 163] (H-MWFLIHFWG-OH),EC50,[1],< 7.5 µM
same,viability,[2],100%
same,Kd,β-catenin,> 30 µM
CC[C@H](C)[C@H](NC(=O)[C@H](CC(C)C)NC(=O)[C@H](Cc1ccccc1)NC(=O)[C@@H](N)Cc1c[nH]c2ccccc12)C(=O)N[C@@H](CO)C(=O)N[C@@H](Cc1ccccc1)C(=O)N[C@@H](Cc1c[nH]c2ccccc12)C(=O)O [compound 110] (H-WFLISFW-OH),EC50,[1],7.5 to 15 µM
same,viability,[2],103%
same,β-Cat FP Hill slope,β-catenin,3
same,Kd,β-catenin,1 to 10 µM
"CC[C@H](C)[C@@H]1NC(=O)[C@H](CC(C)C)NC(=O)[C@H](Cc2ccccc2)NC(=O)[C@H](Cc2c[nH]c3ccccc23)NC(=O)[C@H](CCSC)NC(=O)[C@@H](N)CCCCNC(=O)C[C@@H](C(=O)O)NC(=O)[C@H](Cc2c[nH]c3ccccc23)NC(=O)[C@H](Cc2ccccc2)NC(=O)[C@H](CO)NC1=O [compound 171] (HELM PEPTIDE1{K.M.W.F.L.I.S.F.W.D}$PEPTIDE1,PEPTIDE1,1:R3-10:R3$$$V2.0)",EC50,[1],< 7.5 µM
same,viability,[2],79.6%
same,β-Cat FP Hill slope,β-catenin,0.7
same,Kd,β-catenin,1 to 10 µM
CC[C@H](C)[C@H](NC(=O)[C@H](CC(C)C)NC(=O)[C@H](Cc1ccccc1)NC(=O)[C@H](Cc1c[nH]c2ccccc12)NC(=O)[C@H](CCSC)NC(C)=O)C(=O)N[C@@H](CO)C(=O)N[C@@H](Cc1ccccc1)C(=O)N[C@@H](Cc1c[nH]c2ccccc12)C(=O)NCC(=O)O [compound 219] (Ac-MWFLISFWG-OH),EC50,[1],< 7.5 µM
same,viability,[2],90.6%
same,β-Cat FP Hill slope,β-catenin,0.86
same,Kd,β-catenin,0.4 to 1 µM
"CC[C@H](C)[C@@H]1NC(=O)[C@H](CC(C)C)NC(=O)[C@H](Cc2ccccc2)NC(=O)[C@H](Cc2c[nH]c3ccccc23)NC(=O)[C@@H](N)CCCCNC(=O)C[C@@H](C(=O)O)NC(=O)[C@H](Cc2c[nH]c3ccccc23)NC(=O)[C@H](C)NC(=O)[C@H](CS)NC1=O [compound 168] (HELM PEPTIDE1{K.W.F.L.I.C.A.W.D}$PEPTIDE1,PEPTIDE1,1:R3-9:R3$$$V2.0)",EC50,[1],< 7.5 µM
same,viability,[2],99.1%
same,β-Cat FP Hill slope,β-catenin,0.7
same,Kd,β-catenin,1 to 10 µM
CC[C@H](C)[C@H](NC(=O)[C@H](CC(C)C)NC(=O)[C@H](Cc1ccccc1)NC(=O)[C@H](CC(C)C)NC(=O)[C@H](CCSC)NC(=O)[C@H](CCCNC(=N)N)NC(=O)[C@H](CO)NC(=O)[C@@H](N)CCSC)C(=O)N[C@@H](CO)C(=O)N[C@@H](Cc1ccccc1)C(=O)N[C@@H](Cc1c[nH]c2ccccc12)C(=O)NCC(=O)O [compound 52] (H-MSRMLFLISFWG-OH),EC50,[1],15 to 22.5 µM
same,viability,[2],87.2%
same,Kd,β-catenin,> 30 µM
CC[C@H](C)[C@H](NC(=O)[C@H](CC(C)C)NC(=O)[C@H](Cc1ccccc1)NC(=O)[C@H](Cc1c[nH]c2ccccc12)NC)C(=O)N[C@@H](CO)C(=O)N[C@@H](Cc1ccccc1)C(=O)N[C@@H](Cc1c[nH]c2ccccc12)C(N)=O [compound 102] (HELM PEPTIDE1{[meW].F.L.I.S.F.W.[am]}$$$$V2.0),EC50,[1],15 to 22.5 µM
same,viability,[2],101%
same,β-Cat FP Hill slope,β-catenin,0.7
same,Kd,β-catenin,< 0.4 µM
CC[C@H](C)[C@H](NC(=O)[C@H](CC(C)C)NC(=O)[C@H](Cc1ccccc1)NC(=O)[C@H](Cc1c[nH]c2ccccc12)NC(=O)[C@H](CCSC)NC(=O)[C@H](CCCNC(=N)N)NC(=O)[C@H](CO)NC(=O)[C@@H](N)Cc1ccccc1)C(=O)N[C@@H](CO)C(=O)N[C@@H](Cc1ccccc1)C(=O)N[C@@H](Cc1c[nH]c2ccccc12)C(N)=O [compound 81] (H-FSRMWFLISFW-NH2),EC50,[1],> 30 µM
same,viability,[2],90.7%
same,Kd,β-catenin,> 30 µM
CC[C@H](C)[C@H](NC(=O)[C@H](CC(C)C)NC(=O)[C@H](Cc1ccccc1)NC(=O)[C@H](Cc1c[nH]c2ccccc12)NC(=O)[C@H](CCCCN)NC(=O)[C@H](CCCNC(=N)N)NC(=O)[C@H](CO)NC(=O)[C@@H](N)Cc1c[nH]c2ccccc12)C(=O)N[C@@H](CO)C(=O)N[C@@H](Cc1ccccc1)C(=O)N[C@@H](Cc1c[nH]c2ccccc12)C(N)=O [compound 90] (H-WSRKWFLISFW-NH2),EC50,[1],> 30 µM
same,viability,[2],83.3%
same,Kd,β-catenin,> 30 µM
CC[C@H](C)[C@H](NC(=O)[C@H](CC(C)C)NC(=O)[C@@H](NC(=O)[C@H](Cc1c[nH]c2ccccc12)NC(=O)[C@@H](N)CCCCN)[C@@H](C)CC)C(=O)N[C@@H](CO)C(=O)N[C@@H](Cc1ccccc1)C(=O)N[C@@H](Cc1c[nH]c2ccccc12)C(=O)NCC(=O)O [compound 125] (H-KWILISFWG-OH),EC50,[1],22.5 to 30 µM
same,viability,[2],113%
same,β-Cat FP Hill slope,β-catenin,0.7
same,Kd,β-catenin,0.4 to 1 µM
"CC[C@H](C)[C@@H]1NC(=O)[C@H](CC(C)C)NC(=O)[C@H]([C@@H](C)CC)NC(=O)[C@H](Cc2c[nH]c3ccccc23)NC(=O)[C@@H](N)CCCCNC(=O)CC[C@@H](C(=O)O)NC(=O)[C@H](Cc2c[nH]c3ccccc23)NC(=O)[C@H](C)NC(=O)[C@H](CO)NC1=O [compound 184] (HELM PEPTIDE1{K.W.I.L.I.S.A.W.E}$PEPTIDE1,PEPTIDE1,1:R3-9:R3$$$V2.0)",EC50,[1],< 7.5 µM
same,viability,[2],95.2%
same,β-Cat FP Hill slope,β-catenin,0.7
same,Kd,β-catenin,10 to 30 µM
